Experiment [1] deals with male monkey (a cynomolgus monkey). Put plainly: Intraocular pressure lowering activity after ocular instillation. It is filed as in vivo. Conditions: Primates, in Macaca fascicularis, topical, maximum rate during 24 hours after ocular instillation of 30 μL, conscious monkey; for inhibition in vivo at 100 µg/mL: administration concentration 100 μg/mL; for inhibition in vivo at 30 µg/mL: administration concentration 30 μg/mL; for inhibition in vivo at 10 µg/mL: administration concentration 10 μg/mL; for inhibition in vivo at 3 µg/mL: administration concentration 3 μg/mL. How it is done: As can be easily understood by a person skilled in the art, in an in vivo test, since regarding all test compounds, carboxylic acid which is an active body has poor corneal permeability, pharmacological action of the active body was evaluated by ocular instillation administration of a compound which had been converted into an ester such as an ethyl ester or an isopropyl ester, or an alcohol.
A test compound-containing solution (30 μL) which had been adjusted to each of various concentrations was ocular instillation-administered to the left or right eye of a male monkey (a cynomolgus monkey) under consciousness. An intraocular pressure after administration was measured with time from administration initiation to after 24 hours. Upon measurement of an intraocular pressure, a cynomolgus monkey was fixed on a monkey chair, and the monkey was anesthetized by ocular instillation-administering an ocular surface anesthetic (Benoxil eye drops 0.4% Santen Pharmaceutical Co., Ltd.). After mounting of a blepharostat (Handaya Co., Ltd.), an intraocular pressure of both eyes was measured (7 to 8 examples per group) using a pneumatic applanation flat tonometer (Model 30 Classic, REICHERT). A difference between an intraocular pressure value before the administration of a test substance and an intraocular pressure value after the administration of the test substance was calculated as an intraocular pressure lowering rate in accordance with the following equation, and the sustainability of intraocular eye lowering action was evaluated using a maximum intraocular pressure lowering rate during measurement.
The administered concentrations were determined based on the EP2 agonist activities measured by the above-mentioned method.

The target in another experiment is T1, human EP2 (Homo sapiens, UniProt P43116).
T1 construct: expressed in transfected cells; host or cells: CHO cells (EP2-CHO)
Put plainly: Measurement of EP2 agonist activity (measurement of cAMP concentration). It is filed as cell-based. How it is done: Using Chem1 cells or CHO cells in which various prostanoid receptors were forcibly expressed, respectively, agonist activities of test compounds on various prostanoid receptors was determined employing, as a measure, an intracellular cyclic AMP (hereinbelow, abbreviated as “cAMP”) production amount or an intracellular calcium concentration.
The test compound and a control substance (PGE2 and PGF2α) were dissolved in dimethyl sulfoxide (DMSO) to prepare a 10 mmol/L solution. The 10 mmol/L solution thus prepared was thawed upon use, then serially diluted with DMSO, and then diluted with a buffer solution for measurement use or a buffer solution for measurement use 2, and then the resulting solution was subjected to an experiment.
Cells forcibly expressing various prostanoid receptors were standing-cultured at 37° C. in the presence of 5% CO2 using a DMEM medium (Sigma) (for culturing FP-Chem1) containing inactivated (56° C., 30 minutes) 9.8 vol % nondialysed-FBS (Life Technologies), 1 vol % Non Essential Amino Acids (Life Technologies), 10 mmol/L HEPES Buffer Solution (Life Technologies), 0.5 vol % GENETICIN (Life Technologies) and 1% penicillin-streptomycin (Life Technologies) or an α-MEM medium (Sigma) (for culturing EP2-CHO) containing inactivated (56° C., 30 minutes) 9.8 vol % dialysed-FBS (Life Technologies) and penicillin-streptomycin-glutamine (Life Technologies). Subculturing was carried out by the following manner.
The medium was removed, and washed with a phosphate-buffered physiological saline not containing Ca^2+ and Mg^2+ one time. A proper amount of trypsin-EDTA (Life Technologies) was added, and this was incubated at room temperature, cells were peeled, and a medium having a volume which is 10-fold a volume of trypsin-EDTA was added to stop an enzymatic reaction. After cells were recovered into a centrifuging tube, and centrifuged at room temperature for 3 minutes at 120 g, the supernatant was removed. Cells were suspended in a proper amount of a medium, and seeded in a culturing flask.
On the measurement day, a medium was removed, and EP2-CHO was washed with a phosphate-buffered physiological saline containing 2 mmol/L EDTA and not containing Ca^2+ and Mg^2+ one time. A proper amount of the phosphate-buffered physiological saline containing 2 mmol/L EDTA and not containing Ca^2+ and Mg^2+ was added, this was incubated at 37° C. in the presence of 5% CO2, cells were peeled, cells were recovered into a centrifuging tube, and centrifuged at room temperature for 3 minutes at 550 g, and the supernatant was removed. Cells were suspended in a proper amount of a buffer solution for measurement 1 (MEM medium (Invitrogen) containing 1.0 w/v % bovine serum albumin (Sigma) and 2 μmol/L diclofenac (Sigma)), and centrifuged at room temperature for 3 minutes at 200 g, and the supernatant was removed. Cells were suspended in a buffer solution for measurement 2 (MEM medium (Invitrogen) containing 1.0 w/v % bovine serum albumin (Sigma), 2 μmol/L diclofenac (Sigma) and 1 mmol/L 3-isobutyl-1-methylxanthine), and each 25 μL of the suspension was dispensed into a 96-well ½ area plate so that the cell number per well became […]. A buffer solution for measurement 2 (25 μL) containing an agonist at a variety of concentrations was added to carry out a reaction at room temperature for 30 minutes. Measurement of a cAMP concentration was carried out using the cAMP HTRF HiRange kit (CIS bio International). According to the two step protocol of the kit manual, each 25 μL of cAMP-D2 and Cryptase diluted with a lysis buffer were added, and this was incubated at room temperature for 1 hour. After incubation for 1 hour, time resolution fluorescence at 620 nm and 660 nm when excited at 340 nm was measured using SpectraMax M5e (Molecular Device), and a ratio (TRF ratio) was obtained, thereby, a cAMP concentration was calculated from a calibration line. […]

Setting [2] is: prior-art compounds having an analogous structure, same EP2 test, read-out: EP2 agonist activities, EC50 values.

Where two headings read alike, the source gives them in different places.

T1 sequence (P43116 whole entry): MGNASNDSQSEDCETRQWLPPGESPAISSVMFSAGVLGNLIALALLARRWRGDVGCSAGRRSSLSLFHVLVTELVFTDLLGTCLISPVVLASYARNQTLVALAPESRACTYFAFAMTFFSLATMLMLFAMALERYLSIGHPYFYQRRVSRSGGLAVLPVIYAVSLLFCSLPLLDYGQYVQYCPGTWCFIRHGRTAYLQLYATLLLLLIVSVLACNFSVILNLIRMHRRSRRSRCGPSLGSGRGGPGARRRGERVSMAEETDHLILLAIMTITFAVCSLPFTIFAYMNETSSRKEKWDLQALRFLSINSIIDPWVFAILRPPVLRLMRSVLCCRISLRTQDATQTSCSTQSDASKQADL

The inhibition in vivo is the share of the control response that was lost under treatment. As for `OCc1csc([C@H]2CC[C@@H]3[C@@H](COc4ccc5c(c4)CCC5)[C@H](O)C[C@@H]3O2)n1` [2(4), (2R,4aR,5S,6R,7aS)-5-[(2,3-dihydro-1H-inden-5-yloxy)methyl]-2-[4-(hydroxymethyl)-1,3-thiazol-2-yl]octahydrocyclopenta[b]pyran-6-ol], testing at 100 µg/mL in experiment [1] gave an inhibition in vivo of 40%. Compound `OCc1csc([C@H]2CC[C@@H]3[C@@H](COc4ccc5[nH]ccc5c4)[C@H](O)C[C@@H]3O2)n1` [2(5), (2R,4aR,5S,6R,7aS)-2-[4-(hydroxymethyl)-1,3-thiazol-2-yl]-5-[(1H-indol-5-yloxy)methyl]octahydrocyclopenta[b]pyran-6-ol] registered an inhibition in vivo at 30 µg/mL in experiment [1] of 48%. For `OCc1csc([C@H]2CC[C@@H]3[C@@H](COc4ccc5c(c4)CC5)[C@H](O)C[C@@H]3O2)n1` [2(7), (2R,4aR,5S,6R,7aS)-5-[(bicyclo[4.2.0]octa-1,3,5-trien-3-yloxy)methyl]-2-[4-(hydroxymethyl)-1,3-thiazol-2-yl]octahydrocyclopenta[b]pyran-6-ol], the inhibition in vivo at 30 µg/mL in experiment [1] was found to be 38%.

As to `OCc1csc([C@H]2CC[C@@H]3[C@@H](COc4ccc5ccoc5c4)[C@H](O)C[C@@H]3O2)n1` [2(8), (2R,4aR,5S,6R,7aS)-5-[(1-benzofuran-6-yloxy)methyl]-2-[4-(hydroxymethyl)-1,3-thiazol-2-yl]octahydrocyclopenta[b]pyran-6-ol], the inhibition in vivo at 30 µg/mL in experiment [1] stood at 55%.

In experiment [1], `CCc1cc(OC[C@@H]2[C@H]3CC[C@H](c4nc(CO)cs4)O[C@H]3C[C@H]2O)ccc1C` [2(9), (2R,4aR,5S,6R,7aS)-5-[(3-ethyl-4-methylphenoxy)methyl]-2-[4-(hydroxymethyl)-1,3-thiazol-2-yl]octahydrocyclopenta[b]pyran-6-ol] gave an inhibition in vivo at 10 µg/mL of 52%. Regarding `OCc1csc([C@H]2CC[C@@H]3[C@@H](COc4ccc(Cl)c(C5CC5)c4)[C@H](O)C[C@@H]3O2)n1` [2(10), (2R,4aR,5S,6R,7aS)-5-[(4-chloro-3-cyclopropylphenoxy)methyl]-2-[4-(hydroxymethyl)-1,3-thiazol-2-yl]octahydrocyclopenta[b]pyran-6-ol], in experiment [1], the inhibition in vivo at 10 µg/mL was 31%. In experiment [1], `Cc1ccc(OC[C@@H]2[C@H]3CC[C@H](c4nc(CO)cs4)O[C@H]3C[C@H]2O)cc1C` [2(12), (2R,4aR,5S,6R,7aS)-5-[(3,4-dimethylphenoxy)methyl]-2-[4-(hydroxymethyl)-1,3-thiazol-2-yl]octahydrocyclopenta[b]pyran-6-ol] yielded an inhibition in vivo at 10 µg/mL of 43%. Compound `Cc1cc(OC[C@@H]2[C@H]3CC[C@H](c4nc(CO)cs4)O[C@H]3C[C@H]2O)ccc1Cl` [2(13), (2R,4aR,5S,6R,7aS)-5-[(4-chloro-3-methylphenoxy)methyl]-2-[4-(hydroxymethyl)-1,3-thiazol-2-yl]octahydrocyclopenta[b]pyran-6-ol] yielded an inhibition in vivo at 3 µg/mL in experiment [1] of 31%. For `OCc1csc([C@H]2CC[C@@H]3[C@@H](COc4cccc5c4CCC5)[C@H](O)C[C@@H]3O2)n1` [2(14), (2R,4aR,5S,6R,7aS)-5-[(2,3-dihydro-1H-inden-4-yloxy)methyl]-2-[4-(hydroxymethyl)-1,3-thiazol-2-yl]octahydrocyclopenta[b]pyran-6-ol], the inhibition in vivo at 30 µg/mL in experiment [1] worked out at 45%. `OCc1csc([C@H]2CC[C@@H]3[C@@H](COc4ccc5c(c4F)CCC5)[C@H](O)C[C@@H]3O2)n1` [2(16), (2R,4aR,5S,6R,7aS)-5-{[(4-fluoro-2,3-dihydro-1H-inden-S-yl)oxy]methyl}-2-[4-(hydroxymethyl)-1,3-thiazol-2-yl]octahydrocyclopenta[b]pyran-6-ol] yielded an inhibition in vivo at 30 µg/mL in experiment [1] of 51%. Compound `CC(C)OC(=O)c1csc([C@H]2CC[C@@H]3[C@@H](COc4ccccc4)[C@H](O)C[C@@H]3O2)n1` [3(1), isopropyl 2-[(2R,4aR,5S,6R,7aS)-6-hydroxy-5-(phenoxymethyl)octahydrocyclopenta[b]pyran-2-yl]-1,3-thiazole-4-carboxylate] gave an inhibition in vivo at 100 µg/mL in experiment [1] of 28%. `Cc1cc(OC[C@@H]2[C@H]3CC[C@H](c4nc(C(=O)OC(C)C)cs4)O[C@H]3C[C@H]2O)ccc1[N+](=O)[O-]` [3(3), isopropyl 2-{(2R,4aR,5S,6R,7aS)-6-hydroxy-5-[(3-methyl-4-nitrophenoxy)methyl]octahydrocyclopenta[b]pyran-2-yl}-1,3-thiazole-4-carboxylate] had an inhibition in vivo at 3 µg/mL in experiment [1] of 33%. As to `CC(C)OC(=O)c1csc([C@H]2CC[C@@H]3[C@@H](COc4ccc5c(c4)CCC5)[C@H](O)C[C@@H]3O2)n1` [3(4)], the inhibition in vivo at 30 µg/mL in experiment [1] was 35%. Consider `OCc1csc([C@H]2CC[C@@H]3[C@@H](COc4ccc5c(c4)CCC5)[C@@H](O)C[C@@H]3O2)n1` [10(1), (2R,4aR,5S,6S,7aS)-5-[(2,3-dihydro-1H-inden-5-yloxy)methyl]-2-[4-(hydroxymethyl)-1,3-thiazol-2-yl]octahydrocyclopenta[b]pyran-6-ol], for which the inhibition in vivo at 3 µg/mL in experiment [1] came to 29%. `CCc1cc(OC[C@@H]2[C@H]3CC[C@H](c4nc(CO)cs4)O[C@H]3C[C@@H]2O)ccc1C` [10(3), (2R,4aR,5S,6S,7aS)-5-[(3-ethyl-4-methylphenoxy)methyl]-2-[4-(hydroxymethyl)-1,3-thiazol-2-yl]octahydrocyclopenta[b]pyran-6-ol] had an inhibition in vivo at 1 µg/mL in experiment [1] (administration concentration 1 μg/mL) of 49%.

The EC50 is the concentration giving half of the maximal effect. Take `O=C(O)c1csc([C@H]2CC[C@@H]3[C@@H](COc4ccc(C5CC5)c(C5CC5)c4)[C@@H](O)C[C@@H]3O2)n1` [Example 9, 2-{(2R,4aR,5S,6S,7aS)-5-[(3,4-dicyclopropylphenoxy)methyl]-6-hydroxyoctahydrocyclopenta[b]pyran-2-yl}-1,3-thiazole-4-carboxylic acid]: the EC50 on human EP2 (EP2-CHO cells, cAMP production (HTRF), reaction 30 minutes at room temperature, read-out: EP2 agonist activity EC50) worked out at 0.0028 µM. Take `O=C(O)c1csc([C@H]2CC[C@@H]3[C@@H](/C=C/[C@@H](O)COc4ccccc4)[C@H](O)C[C@@H]3OC2)n1` [reference compound]: on human EP2 (setting [2]), the EC50 was not below 10 µM. Take `O=C(O)c1ccc(C2=CC[C@@H]3[C@@H](/C=C/[C@@H](O)C4CCCC4)[C@H](O)C[C@@H]3O2)o1` [reference compound]: at human EP2 (setting [2]), the EC50 was not below 10 µM.

In the case of `CCCCC[C@H](O)/C=C/[C@@H]1[C@H]2CCC(c3ccccc3CC(=O)O)O[C@H]2C[C@H]1O` (stereo partly shown) [reference compound], the concentration giving a half-maximal response (EC50) at human EP2 (setting [2]) was not below 10 µM.

The values are drawn from patent US9890146B2, “Compound having selective EP2 agonist activity” (ONO PHARMACEUTICAL CO., LTD., priority 2014, dated 2018).
